Consider nine compounds from patent US8119624B2, “Fused phenyl amido heterocyclic compounds” (Pfizer Inc., priority 2006, dated 2012).

The target in the assay is T1, Full-length glucokinase (beta cell isoform) (Homo sapiens, UniProt P35557).
T1 construct: Full-length glucokinase (beta cell isoform) was His-tagged at N-terminus; His tag (N); made in house
T1 sequence (P35557 1-465): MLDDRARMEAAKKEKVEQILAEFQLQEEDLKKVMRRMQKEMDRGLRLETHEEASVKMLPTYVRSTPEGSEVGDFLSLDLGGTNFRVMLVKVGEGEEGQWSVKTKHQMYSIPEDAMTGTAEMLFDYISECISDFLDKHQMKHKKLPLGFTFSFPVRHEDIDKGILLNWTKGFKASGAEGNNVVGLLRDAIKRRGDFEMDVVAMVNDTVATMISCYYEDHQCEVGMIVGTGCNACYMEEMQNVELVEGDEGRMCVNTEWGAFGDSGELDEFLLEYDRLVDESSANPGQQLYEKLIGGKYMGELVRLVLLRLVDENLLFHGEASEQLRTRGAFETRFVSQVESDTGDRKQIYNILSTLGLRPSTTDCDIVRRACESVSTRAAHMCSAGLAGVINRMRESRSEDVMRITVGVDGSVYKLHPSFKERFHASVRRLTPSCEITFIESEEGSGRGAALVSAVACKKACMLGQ
The assay is described as follows: Glucokinase biochemical assay (PK/LDH-coupled, NADH depletion at 340 nm): % activation, EC50, % max activation. As to conditions: 5 mM glucose; for activation at 10 µM: 10 uM compound, % Activation=(Va/Vo−1)×100, read-out: % Activation at 10 uM; for EC50: GK activation, read-out: EC50; for Emax: fitted maximum activation, read-out: % Max Activation. In short, it runs like this: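 N-terminally His-tagged full-length human beta-cell glucokinase, room temperature, 5 mM glucose, 1 mM ATP, PK/LDH-coupled with 0.7 mM NADH, 1% DMSO final. Initial velocity from the 200–900 s slope of A340 decline. % activation = (Va/Vo−1)×100, measured across compound concentrations.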

As a reminder, the EC50 is the concentration giving half of the maximal effect.

Regarding `Cn1ccc(NC(=O)c2cc(Oc3ccc(S(=O)(=O)N4CCC4)cc3)c3c(c2)OC(C)(C)C3)n1` [Example 125, 4-[4-(Azetidine-1-sulfonyl)-phenoxy]-2,2-dimethyl-2,3-dihydro-benzofuran-6-carboxylic acid (1-methyl-1H-pyrazol-3-yl)-amide], the activation at 10 µM was 181%, the EC50 was 46 nM and the Emax was 162%.
In the same order, the values of `CCS(=O)(=O)c1ccc(Oc2cc(C(=O)Nc3ccc(C)cn3)cc3c2CC(C)(C)O3)cc1` [Example 126, 4-(4-Ethanesulfonyl-phenoxy)-2,2-dimethyl-2,3-dihydro-benzofuran-6-carboxylic acid (5-methyl-pyridin-2-yl)-amide] are 137%, 37 nM and 118%.
As to `CCS(=O)(=O)c1ccc(Oc2cc(C(=O)Nc3ccn(C)n3)cc3c2CC(C)(C)O3)cc1` [Example 127, 4-(4-Ethanesulfonyl-phenoxy)-2,2-dimethyl-2,3-dihydro-benzofuran-6-carboxylic acid (1-methyl-1H-pyrazol-3-yl)-amide], the activation at 10 µM was determined as 193%, the concentration giving a half-maximal response (EC50) is 66 nM and the Emax came out at 165%.
As for `Cc1ccc(NC(=O)c2cc(Oc3ccc(S(=O)(=O)N(C)C)cc3)c3c(c2)OC(C)(C)C3)nc1` [Example 128, 4-(4-Dimethylsulfamoyl-phenoxy)-2,2-dimethyl-2,3-dihydro-benzofuran-6-carboxylic acid (5-methyl-pyridin-2-yl)-amide], the activation at 10 µM was 135%, the EC50 came out at 38 nM and the Emax came out at 112%.
The corresponding values for `Cn1ccc(NC(=O)c2cc(Oc3ccc(S(=O)(=O)C4CC4)cc3)c3c(c2)OC(C)(C)C3)n1` [Example 129, 4-(4-Cyclopropanesulfonyl-phenoxy)-2,2-dimethyl-2,3-dihydro-benzofuran-6-carboxylic acid (1-methyl-1H-pyrazol-3-yl)-amide] are 185%, 89 nM and 160%.
The corresponding values for `CN(C)S(=O)(=O)c1ccc(Oc2cc(C(=O)Nc3ccn(C)n3)cc3c2CC(C)(C)O3)cc1F` [Example 130, 4-(4-Dimethylsulfamoyl-3-fluoro-phenoxy)-2,2-dimethyl-2,3-dihydro-benzofuran-6-carboxylic acid (1-methyl-1H-pyrazol-3-yl)-amide] are 211%, 140 nM and 236%.
In the same order, the values of `Cn1ncc(NC(=O)c2cc(Oc3ccc(S(=O)(=O)C4CC4)cc3)c3c(c2)OC(C)(C)C3)n1` [Example 131, 4-(4-Cyclopropanesulfonyl-phenoxy)-2,2-dimethyl-2,3-dihydro-benzofuran-6-carboxylic acid (2-methyl-2H-[1,2,3]triazol-4-yl)-amide] are 292%, 210 nM and 272%.
On to `CN(C)S(=O)(=O)c1ccc(Oc2cc(C(=O)Nc3cnn(C)n3)cc3c2CC(C)(C)O3)cc1F` [Example 132, 4-(4-Dimethylsulfamoyl-3-fluoro-phenoxy)-2,2-dimethyl-2,3-dihydro-benzofuran-6-carboxylic acid (2-methyl-2H-[1,2,3]triazol-4-yl)-amide], for which the activation at 10 µM amounted to 288%, the EC50 came out at 170 nM and the Emax was 280%.
Take `CCS(=O)(=O)c1ccc(Oc2cc(C(=O)Nc3cnn(C)n3)cc3c2CC(C)(C)O3)cc1` [Example 133, 4-(4-Ethanesulfonyl-phenoxy)-2,2-dimethyl-2,3-dihydro-benzofuran-6-carboxylic acid (2-methyl-2H-[1,2,3]triazol-4-yl)-amide]: the activation at 10 µM turned out to be 308%, the EC50 amounted to 120 nM and the Emax was 293%.
